These results are taken from ChEMBL document CHEMBL1126376, “Synthesis and activities of 9-pyrrolo-9-deoxoerythromycin a analogs” (1992).

Test systems include Haemophilus influenzae; Enterococcus faecalis; Streptococcus pneumoniae; Staphylococcus aureus; Streptococcus pyogenes.
Assay in all cases: microbe, parasite or virus in culture
Common to all, as to type: functional

Test [1] concerns Staphylococcus epidermidis.
Description: In vitro minimum inhibitory concentration against Staphylococcus epidermidis (MB 5414) was determined

The structures appear in SMILES notation. Converted amounts (≈) assume the structure as drawn.

Description for Enterococcus faecalis: In vitro minimum inhibitory concentration against Enterococcus faecalis (MB 5407) was determined
Description for Haemophilus influenzae: In vitro minimum inhibitory concentration against Haemophilus influenzae (MB 5363) was determined
Description for Staphylococcus aureus: In vitro minimum inhibitory concentration against Staphylococcus aureus (MB 2865) was determined
Description for Streptococcus pneumoniae: In vitro minimum inhibitory concentration against Streptococcus pneumoniae (CL 2883) was determined
Description for Streptococcus pyogenes: In vitro minimum inhibitory concentration against Streptococcus pyogenes (MB 2874) was determined

For `CC[C@H]1OC(=O)[C@H](C)[C@@H](O[C@H]2C[C@@](C)(OC)[C@@H](O)[C@H](C)O2)[C@H](C)[C@@H](O[C@@H]2O[C@H](C)C[C@H](N(C)C)[C@H]2O)[C@](C)(O)C[C@@H](C)[C@@H](n2cccc2)[C@H](C)[C@@H](O)[C@]1(C)O`, the MIC with Haemophilus influenzae was above 128 µg/mL; in the test with Enterococcus faecalis, 32 µg/mL (≈ 40.8 µM); against Streptococcus pneumoniae it was 2 µg/mL (≈ 2.55 µM); in test [1], 64 µg/mL (≈ 81.5 µM); against Staphylococcus aureus it was 128 µg/mL (≈ 163 µM).

Turning to `CC[C@H]1OC(=O)[C@H](C)[C@@H](O[C@H]2C[C@@](C)(OC)[C@@H](O)[C@H](C)O2)[C@H](C)[C@@H](O[C@@H]2O[C@H](C)C[C@H](N(C)C)[C@H]2O)[C@](C)(O)C[C@@H](C)[C@H](n2ccc(C=O)c2)[C@H](C)[C@@H](O)[C@]1(C)O`, the MIC against Haemophilus influenzae was determined as 64 µg/mL (≈ 78.7 µM); with Enterococcus faecalis it was 64 µg/mL (≈ 78.7 µM); in the test with Streptococcus pneumoniae, 64 µg/mL (≈ 78.7 µM); in test [1], 32 µg/mL (≈ 39.4 µM); with Streptococcus pyogenes it was 32 µg/mL (≈ 39.4 µM); against Staphylococcus aureus, 32 µg/mL (≈ 39.4 µM).

For the molecule `CC[C@H]1OC(=O)[C@H](C)[C@@H](O[C@H]2C[C@@](C)(OC)[C@@H](O)[C@H](C)O2)[C@H](C)[C@@H](O[C@@H]2O[C@H](C)C[C@H](N(C)C)[C@H]2O)[C@](C)(O)C[C@@H](C)[C@H](n2cccc2)[C@H](C)[C@@H](O)[C@]1(C)O`, the MIC against Haemophilus influenzae came out at 128 µg/mL (≈ 163 µM); with Enterococcus faecalis it was 64 µg/mL (≈ 81.5 µM); in the test on Streptococcus pneumoniae it was 4 µg/mL (≈ 5.1 µM); in test [1] it was 32 µg/mL (≈ 40.8 µM); in the test with Streptococcus pyogenes it was 4 µg/mL (≈ 5.1 µM); in the test on Staphylococcus aureus it was 64 µg/mL (≈ 81.5 µM).

With `CC[C@H]1OC(=O)[C@H](C)[C@@H](O[C@H]2C[C@@](C)(OC)[C@@H](O)[C@H](C)O2)[C@H](C)[C@@H](O[C@@H]2O[C@H](C)C[C@H](N(C)C)[C@H]2O)[C@](C)(O)C[C@@H](C)[C@H](n2ccc(O)c2C(=O)OC(C)(C)C)[C@H](C)[C@@H](O)[C@]1(C)O`, the MIC turned out to be 32 µg/mL (≈ 35.5 µM) against Haemophilus influenzae; 16 µg/mL (≈ 17.8 µM) in the test on Enterococcus faecalis; 0.5 µg/mL (≈ 0.555 µM) against Streptococcus pneumoniae; 4 µg/mL (≈ 4.44 µM) in test [1]; 0.25 µg/mL (≈ 0.277 µM) in the test on Streptococcus pyogenes; 8 µg/mL (≈ 8.88 µM) against Staphylococcus aureus.

Take `CC[C@H]1OC(=O)[C@H](C)[C@@H](O[C@H]2C[C@@](C)(OC)[C@@H](O)[C@H](C)O2)[C@H](C)[C@@H](O[C@@H]2O[C@H](C)C[C@H](N(C)C)[C@H]2O)[C@](C)(O)C[C@@H](C)[C@@H](n2ccc(O)c2C(=O)OC(C)(C)C)[C@H](C)[C@@H](O)[C@]1(C)O`: the MIC against Haemophilus influenzae was above 128 µg/mL; in the test on Enterococcus faecalis it was 64 µg/mL (≈ 71 µM); against Streptococcus pneumoniae, 16 µg/mL (≈ 17.8 µM); in test [1], 64 µg/mL (≈ 71 µM); against Streptococcus pyogenes it was 8 µg/mL (≈ 8.88 µM); against Staphylococcus aureus, 64 µg/mL (≈ 71 µM).

`CC[C@H]1OC(=O)[C@H](C)[C@@H](O[C@H]2C[C@@](C)(OC)[C@@H](O)[C@H](C)O2)[C@H](C)[C@@H](O[C@@H]2O[C@H](C)C[C@H](N(C)C)[C@H]2O)[C@](C)(O)C[C@@H](C)[C@@H](n2ccc(C=O)c2)[C@H](C)[C@@H](O)[C@]1(C)O`: the MIC against Haemophilus influenzae was 128 µg/mL (≈ 157 µM); in the test on Enterococcus faecalis it was 16 µg/mL (≈ 19.7 µM); against Streptococcus pneumoniae, 1 µg/mL (≈ 1.23 µM); in test [1], 8 µg/mL (≈ 9.84 µM); with Staphylococcus aureus it was 32 µg/mL (≈ 39.4 µM).
